In PubChem BioAssay (NCI):
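In this assay, cells in 96-well plates receive the compound at five concentrations for 48 hours. Endpoints are linearly interpolated between the surrounding concentrations. TGI denotes the concentration required for complete inhibition of growth.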

Experiments:
Test in all cases: DTP human tumour cell line panel, 48 h
OVCAR-8 ovarian = system: OVCAR-8 ovarian
A498 renal = system: A498 renal
MOLT-4 leukemia = system: MOLT-4 leukemia
RPMI-8226 leukemia = system: RPMI-8226 leukemia
HCC-2998 colon = system: HCC-2998 colon
SNB-78 CNS = system: SNB-78 CNS
SF-295 CNS = system: SF-295 CNS
HCT-116 colon = system: HCT-116 colon
UACC-257 melanoma = system: UACC-257 melanoma
A549 NSCLC = system: A549 NSCLC
SF-539 CNS = system: SF-539 CNS
SF-268 CNS = system: SF-268 CNS
XF 498 CNS = system: XF 498 CNS
M19-MEL melanoma = system: M19-MEL melanoma
U251 CNS = system: U251 CNS
HL-60(TB) leukemia = system: HL-60(TB) leukemia
K-562 leukemia = system: K-562 leukemia
HOP-62 NSCLC = system: HOP-62 NSCLC
DMS 273 small cell lung = system: DMS 273 small cell lung
HCT-15 colon = system: HCT-15 colon

SMILES	TGI (OVCAR-8 ovarian)	TGI (A498 renal)	TGI (MOLT-4 leukemia)	TGI (RPMI-8226 leukemia)	TGI (HCC-2998 colon)	TGI (SNB-78 CNS)	TGI (SF-295 CNS)	TGI (HCT-116 colon)	TGI (UACC-257 melanoma)	TGI (A549 NSCLC)	TGI (SF-539 CNS)	TGI (SF-268 CNS)	TGI (XF 498 CNS)	TGI (M19-MEL melanoma)	TGI (U251 CNS)	TGI (HL-60(TB) leukemia)	TGI (K-562 leukemia)	TGI (HOP-62 NSCLC)	TGI (DMS 273 small cell lung)	TGI (HCT-15 colon)
Cc1cc(N=Nc2ccc(N=Nc3c(O)c(S(=O)(=O)O)cc4cc(S(=O)(=O)O)ccc34)cc2C)ccc1N=Nc1ccc2cc(S(=O)(=O)O)cc(S(=O)(=O)O)c2c1	> 31.6 µM	> 100 µM	> 100 µM	> 100 µM	> 100 µM	> 100 µM	> 100 µM	> 100 µM	> 100 µM	> 100 µM	> 100 µM	> 100 µM	> 100 µM	> 100 µM	> 100 µM	> 100 µM	> 100 µM	> 100 µM	> 100 µM	> 100 µM
CC1OC(OC2CC(O)(C(=O)CO)Cc3c(O)c4c(c(O)c32)C(=O)c2ccccc2C4=O)CC(N)C1O (configuration not stated)	12.4 µM	0.0526 µM	< 0.0819 µM	0.235 µM	0.084 µM	0.898 µM	0.0818 µM	0.407 µM	0.326 µM	–	0.121 µM	0.549 µM	0.588 µM	0.15 µM	0.188 µM	< 0.0173 µM	9.2 µM	0.0782 µM	< 0.0278 µM	1.99 µM
COc1cc2c(cc1OC)C(Cc1c3ccccc3cc3ccccc13)N(C)CC2 (configuration not stated)	> 90.7 µM	43.6 µM	58.3 µM	34 µM	–	> 73.1 µM	33.8 µM	40.3 µM	35.5 µM	> 100 µM	47.1 µM	> 100 µM	38.8 µM	49.8 µM	35.6 µM	31.3 µM	39.3 µM	48.7 µM	74.1 µM	> 87.6 µM
CCOC(=O)NC(=O)c1cn(CCSCCOC(=O)NCCCCCCNC(=O)OCCSCCn2cc(C(=O)NC(=O)OCC)c(=O)[nH]c2=O)c(=O)[nH]c1=O	> 100 µM	–	–	–	–	> 100 µM	> 100 µM	> 100 µM	> 100 µM	> 100 µM	> 100 µM	–	–	> 100 µM	> 100 µM	> 100 µM	> 100 µM	> 100 µM	> 100 µM	> 100 µM
O=C(O)CNS(=O)(=O)c1ccc(NC(=O)Nc2ccccc2)cc1	> 100 µM	> 100 µM	> 100 µM	> 100 µM	> 100 µM	> 100 µM	> 100 µM	> 100 µM	> 100 µM	> 100 µM	> 100 µM	> 100 µM	> 100 µM	> 55.5 µM	> 100 µM	> 31.6 µM	> 100 µM	> 100 µM	> 100 µM	> 100 µM
COC(=O)NN1C(=O)C(=P(c2ccccc2)(c2ccccc2)c2ccccc2)C(C(=O)OC)=C1C	> 100 µM	> 100 µM	> 100 µM	> 100 µM	–	> 100 µM	> 100 µM	–	–	–	> 100 µM	> 100 µM	–	> 100 µM	> 100 µM	> 100 µM	> 100 µM	–	> 100 µM	> 100 µM
Cn1c(=O)c2nc(N3CCCCC3)cnc2n(C)c1=O	> 100 µM	> 100 µM	> 100 µM	> 100 µM	> 100 µM	–	> 100 µM	> 100 µM	> 100 µM	> 100 µM	> 100 µM	> 100 µM	> 100 µM	> 100 µM	> 100 µM	> 100 µM	> 100 µM	> 100 µM	–	> 100 µM
CC1=C2C(O)C(C(C)C(=O)NC(C)C)CCC2(C)C=CC1=O (configuration not stated)	> 100 µM	> 100 µM	> 100 µM	> 100 µM	> 100 µM	> 100 µM	> 100 µM	> 100 µM	> 100 µM	> 100 µM	> 100 µM	> 100 µM	> 100 µM	–	> 100 µM	> 100 µM	> 100 µM	> 100 µM	> 100 µM	> 100 µM
CC(C)(O)[C@H](CCO)O[Si](c1ccccc1)(c1ccccc1)C(C)(C)C	23.8 µM	30.9 µM	20 µM	49.4 µM	18.1 µM	29.8 µM	18.9 µM	17.6 µM	29.7 µM	22.1 µM	27.3 µM	26.7 µM	20.7 µM	29.3 µM	24.9 µM	20.1 µM	23.7 µM	–	24.2 µM	20.7 µM
CCNCCCCNCC	> 3750 µM	> 3750 µM	> 3750 µM	> 3750 µM	> 3750 µM	> 3750 µM	> 3750 µM	> 3750 µM	> 3750 µM	> 3750 µM	> 3750 µM	> 3750 µM	> 3750 µM	> 3750 µM	> 3750 µM	> 1190 µM	> 3750 µM	> 3750 µM	> 3750 µM	> 3750 µM
